In ChEMBL document CHEMBL4507259 (2021):

Key:
[1] = system: Receptor-type tyrosine-protein kinase FLT3 (Homo sapiens), P36888 [D835H]; settings: Compound concentration 1000.0 nM
[2] = system: Mast/stem cell growth factor receptor Kit (Homo sapiens), P10721 [V559D,V654A]; settings: Compound concentration 1000.0 nM
[3] = molecular target: Serine/threonine-protein kinase ULK1 (Homo sapiens) (UniProt O75385); settings: Compound concentration 1000.0 nM
[4] = molecular target: Activated CDC42 kinase 1 (Homo sapiens) (UniProt Q07912); settings: Compound concentration 1000.0 nM
Chain of Activated CDC42 kinase 1 (Homo sapiens) (Q07912 whole entry, looked up, canonical isoform): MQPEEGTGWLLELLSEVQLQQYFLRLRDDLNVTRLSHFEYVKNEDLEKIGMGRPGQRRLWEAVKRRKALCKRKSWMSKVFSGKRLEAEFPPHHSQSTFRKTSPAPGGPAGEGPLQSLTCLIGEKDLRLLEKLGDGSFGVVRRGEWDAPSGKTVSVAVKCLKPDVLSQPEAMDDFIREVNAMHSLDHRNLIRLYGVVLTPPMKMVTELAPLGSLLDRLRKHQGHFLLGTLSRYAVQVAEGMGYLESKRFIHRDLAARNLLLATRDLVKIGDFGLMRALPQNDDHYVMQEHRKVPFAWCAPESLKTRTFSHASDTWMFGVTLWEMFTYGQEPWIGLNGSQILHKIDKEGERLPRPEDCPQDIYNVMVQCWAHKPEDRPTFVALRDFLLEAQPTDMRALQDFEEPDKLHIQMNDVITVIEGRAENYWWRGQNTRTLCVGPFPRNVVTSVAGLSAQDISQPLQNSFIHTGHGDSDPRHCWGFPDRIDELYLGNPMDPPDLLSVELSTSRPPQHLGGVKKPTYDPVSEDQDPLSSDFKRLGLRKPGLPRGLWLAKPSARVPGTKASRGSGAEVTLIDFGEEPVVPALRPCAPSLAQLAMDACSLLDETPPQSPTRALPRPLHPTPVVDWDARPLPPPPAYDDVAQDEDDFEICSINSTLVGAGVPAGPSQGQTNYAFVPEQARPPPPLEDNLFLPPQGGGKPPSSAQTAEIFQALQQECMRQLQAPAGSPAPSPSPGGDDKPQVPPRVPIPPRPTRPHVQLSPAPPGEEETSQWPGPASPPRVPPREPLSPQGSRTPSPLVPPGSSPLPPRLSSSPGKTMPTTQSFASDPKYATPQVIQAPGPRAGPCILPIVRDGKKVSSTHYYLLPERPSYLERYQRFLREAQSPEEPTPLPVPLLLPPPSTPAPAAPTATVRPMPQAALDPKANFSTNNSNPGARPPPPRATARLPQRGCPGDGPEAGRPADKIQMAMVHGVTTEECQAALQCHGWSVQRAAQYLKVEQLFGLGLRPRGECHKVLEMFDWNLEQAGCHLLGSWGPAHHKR

[5] = molecular target: Phosphatidylinositol 4,5-bisphosphate 3-kinase catalytic subunit delta isoform (Homo sapiens) (UniProt O00329); settings: Compound concentration 1000.0 nM
Chain of Phosphatidylinositol 4,5-bisphosphate 3-kinase catalytic subunit delta isoform (Homo sapiens) (O00329 whole entry, canonical isoform): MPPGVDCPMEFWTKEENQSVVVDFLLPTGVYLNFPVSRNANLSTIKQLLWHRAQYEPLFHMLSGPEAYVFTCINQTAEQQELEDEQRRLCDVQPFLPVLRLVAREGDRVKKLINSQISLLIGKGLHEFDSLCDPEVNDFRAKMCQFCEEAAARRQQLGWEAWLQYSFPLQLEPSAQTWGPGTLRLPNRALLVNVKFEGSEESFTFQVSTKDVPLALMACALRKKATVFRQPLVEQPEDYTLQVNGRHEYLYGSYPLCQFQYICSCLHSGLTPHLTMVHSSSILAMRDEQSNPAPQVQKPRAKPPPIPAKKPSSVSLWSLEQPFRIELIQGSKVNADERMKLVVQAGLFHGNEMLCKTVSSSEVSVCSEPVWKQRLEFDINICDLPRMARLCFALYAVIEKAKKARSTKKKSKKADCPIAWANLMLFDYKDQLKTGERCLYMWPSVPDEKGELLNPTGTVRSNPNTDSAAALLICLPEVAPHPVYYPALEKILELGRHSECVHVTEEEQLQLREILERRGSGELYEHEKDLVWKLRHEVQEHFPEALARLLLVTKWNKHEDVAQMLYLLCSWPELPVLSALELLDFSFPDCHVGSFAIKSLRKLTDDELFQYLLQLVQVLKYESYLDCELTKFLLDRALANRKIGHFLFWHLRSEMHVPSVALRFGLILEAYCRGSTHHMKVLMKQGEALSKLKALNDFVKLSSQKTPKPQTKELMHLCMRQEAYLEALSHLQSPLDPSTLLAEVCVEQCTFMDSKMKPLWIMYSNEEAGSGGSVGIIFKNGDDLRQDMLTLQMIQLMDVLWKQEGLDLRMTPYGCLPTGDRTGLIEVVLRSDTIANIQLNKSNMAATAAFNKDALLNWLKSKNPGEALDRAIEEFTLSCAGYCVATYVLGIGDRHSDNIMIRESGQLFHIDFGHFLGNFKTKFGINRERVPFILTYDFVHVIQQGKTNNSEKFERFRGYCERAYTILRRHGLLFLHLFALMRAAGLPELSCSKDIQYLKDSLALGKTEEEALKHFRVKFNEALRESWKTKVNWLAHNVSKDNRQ

[6] = molecular target: Protein kinase C delta type (Homo sapiens) (UniProt Q05655); settings: Compound concentration 1000.0 nM
Chain of Protein kinase C delta type (Homo sapiens) (Q05655 whole entry, looked up): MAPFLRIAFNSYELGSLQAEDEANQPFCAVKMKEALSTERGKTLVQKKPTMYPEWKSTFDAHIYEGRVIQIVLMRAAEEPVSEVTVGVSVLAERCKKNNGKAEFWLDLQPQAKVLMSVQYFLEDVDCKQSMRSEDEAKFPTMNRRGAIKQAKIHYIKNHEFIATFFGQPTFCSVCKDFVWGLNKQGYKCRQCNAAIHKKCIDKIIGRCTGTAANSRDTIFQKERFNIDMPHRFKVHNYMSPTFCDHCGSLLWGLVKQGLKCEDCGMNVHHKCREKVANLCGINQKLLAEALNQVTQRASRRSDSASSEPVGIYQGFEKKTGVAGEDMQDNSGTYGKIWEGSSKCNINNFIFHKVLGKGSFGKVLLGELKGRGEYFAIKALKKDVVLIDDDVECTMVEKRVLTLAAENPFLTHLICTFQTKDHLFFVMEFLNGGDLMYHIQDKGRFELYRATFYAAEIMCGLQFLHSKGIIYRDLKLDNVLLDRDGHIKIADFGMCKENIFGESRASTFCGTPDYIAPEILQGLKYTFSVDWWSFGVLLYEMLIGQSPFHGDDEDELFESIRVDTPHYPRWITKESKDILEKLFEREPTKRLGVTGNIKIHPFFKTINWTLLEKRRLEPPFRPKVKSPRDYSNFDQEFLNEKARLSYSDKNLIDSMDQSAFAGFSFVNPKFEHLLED

[7] = system: Receptor-type tyrosine-protein kinase FLT3 (Homo sapiens), P36888 [K663Q]; settings: Compound concentration 1000.0 nM
[8] = molecular target: Phosphorylase b kinase regulatory subunit alpha, liver isoform (Homo sapiens) (UniProt P46019); settings: Compound concentration 1000.0 nM
[9] = molecular target: Focal adhesion kinase 1 (Homo sapiens) (UniProt Q05397); settings: Compound concentration 1000.0 nM
[10] = molecular target: Mu-type opioid receptor (Homo sapiens) (UniProt P35372); assay: mu (MOP) (h) CEREP ligand profiling; settings: filed as agonist, Compound concentration 10.0 uM
[11] = molecular target: Rho-associated protein kinase 1 (Homo sapiens) (UniProt Q13464); settings: Compound concentration 1000.0 nM
[12] = molecular target: Fibroblast growth factor receptor 2 (Homo sapiens) (UniProt P21802); settings: Compound concentration 1000.0 nM
[13] = molecular target: MAP/microtubule affinity-regulating kinase 3 (Homo sapiens) (UniProt P27448); settings: Compound concentration 1000.0 nM
[14] = molecular target: Sodium-dependent serotonin transporter (Homo sapiens, UniProt P31645); assay: 5-HT transporter (h) CEREP ligand profiling; settings: filed as antagonist, Compound concentration 10.0 uM
Chain of Sodium-dependent serotonin transporter (P31645 whole entry, looked up): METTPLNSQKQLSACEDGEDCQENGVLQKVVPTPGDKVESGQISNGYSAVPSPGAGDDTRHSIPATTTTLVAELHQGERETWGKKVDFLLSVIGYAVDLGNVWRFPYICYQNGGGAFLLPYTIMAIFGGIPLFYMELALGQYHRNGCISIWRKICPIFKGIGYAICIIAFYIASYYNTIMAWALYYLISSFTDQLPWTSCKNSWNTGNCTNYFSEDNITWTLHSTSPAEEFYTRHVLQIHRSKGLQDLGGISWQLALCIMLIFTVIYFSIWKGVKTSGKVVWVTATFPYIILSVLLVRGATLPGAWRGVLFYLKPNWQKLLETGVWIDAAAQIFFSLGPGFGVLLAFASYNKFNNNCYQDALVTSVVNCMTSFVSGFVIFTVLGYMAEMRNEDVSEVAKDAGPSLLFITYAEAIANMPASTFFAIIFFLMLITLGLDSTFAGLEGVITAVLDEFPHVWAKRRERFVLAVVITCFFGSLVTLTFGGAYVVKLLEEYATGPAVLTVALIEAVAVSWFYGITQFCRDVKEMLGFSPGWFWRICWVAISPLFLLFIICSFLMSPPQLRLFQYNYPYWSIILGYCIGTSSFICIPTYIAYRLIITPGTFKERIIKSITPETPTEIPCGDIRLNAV

[15] = system: Mast/stem cell growth factor receptor Kit (Homo sapiens), P10721 [D816H]; settings: Compound concentration 1000.0 nM
[16] = molecular target: GABA-A receptor; anion channel (Rattus norvegicus) (UniProt O09028+P15431+P18506+P18508+P19969+P20236+P23574+P23576+P28471+P28473+P30191+P62813+P63079+P63138+Q91ZM7+Q9ES14); settings: Compound concentration 10.0 uM
[17] = molecular target: Muscle, skeletal receptor tyrosine-protein kinase (Homo sapiens) (UniProt O15146); settings: Compound concentration 1000.0 nM
[18] = molecular target: Phosphatidylinositol 4-phosphate 3-kinase C2 domain-containing subunit beta (Homo sapiens) (UniProt O00750); settings: Compound concentration 1000.0 nM
[19] = molecular target: T1, Alpha-2B adrenergic receptor (Homo sapiens) (UniProt P18089); assay: alpha 2B (h) CEREP ligand profiling; settings: filed as antagonist, Compound concentration 10.0 uM
T1 sequence (whole entry): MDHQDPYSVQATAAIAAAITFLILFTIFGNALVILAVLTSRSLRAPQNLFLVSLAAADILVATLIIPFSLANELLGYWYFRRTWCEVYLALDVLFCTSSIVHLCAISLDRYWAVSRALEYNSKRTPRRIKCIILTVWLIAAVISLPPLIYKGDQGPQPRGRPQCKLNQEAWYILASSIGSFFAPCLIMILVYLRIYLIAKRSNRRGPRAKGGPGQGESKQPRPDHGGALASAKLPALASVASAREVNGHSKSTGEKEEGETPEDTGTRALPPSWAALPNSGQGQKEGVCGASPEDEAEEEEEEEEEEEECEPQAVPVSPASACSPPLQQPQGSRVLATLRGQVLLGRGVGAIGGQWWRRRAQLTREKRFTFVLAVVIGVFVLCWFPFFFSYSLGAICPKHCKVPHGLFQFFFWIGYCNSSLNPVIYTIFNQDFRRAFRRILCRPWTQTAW

[20] = molecular target: Serine/threonine-protein kinase D3 (Homo sapiens) (UniProt O94806); settings: Compound concentration 1000.0 nM
Chain of Serine/threonine-protein kinase D3 (Homo sapiens) (O94806 whole entry): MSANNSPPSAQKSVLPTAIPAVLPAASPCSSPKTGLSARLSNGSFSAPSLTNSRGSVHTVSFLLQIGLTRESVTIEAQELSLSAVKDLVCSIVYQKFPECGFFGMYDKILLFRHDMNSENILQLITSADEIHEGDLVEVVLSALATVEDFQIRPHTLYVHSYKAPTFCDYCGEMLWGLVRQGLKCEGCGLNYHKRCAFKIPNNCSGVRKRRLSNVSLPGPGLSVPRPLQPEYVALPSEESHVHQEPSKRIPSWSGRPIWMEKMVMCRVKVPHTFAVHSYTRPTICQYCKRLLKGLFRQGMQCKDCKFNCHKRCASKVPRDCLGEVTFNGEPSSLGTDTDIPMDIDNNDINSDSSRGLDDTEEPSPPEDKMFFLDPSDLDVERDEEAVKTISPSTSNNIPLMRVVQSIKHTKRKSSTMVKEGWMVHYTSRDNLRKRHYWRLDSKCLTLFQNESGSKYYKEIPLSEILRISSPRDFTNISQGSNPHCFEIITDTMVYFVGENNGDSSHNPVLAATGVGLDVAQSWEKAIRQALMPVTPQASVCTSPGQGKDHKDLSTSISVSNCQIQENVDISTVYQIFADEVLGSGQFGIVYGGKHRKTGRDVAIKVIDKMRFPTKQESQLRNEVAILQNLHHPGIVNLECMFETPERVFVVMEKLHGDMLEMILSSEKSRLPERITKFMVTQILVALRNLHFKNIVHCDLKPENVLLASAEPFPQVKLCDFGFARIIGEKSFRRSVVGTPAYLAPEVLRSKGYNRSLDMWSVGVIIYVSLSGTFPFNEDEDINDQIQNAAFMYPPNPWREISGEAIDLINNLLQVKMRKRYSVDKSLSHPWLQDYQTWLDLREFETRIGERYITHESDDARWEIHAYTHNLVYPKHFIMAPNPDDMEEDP

[21] = molecular target: Serine/threonine-protein kinase Sgk3 (Homo sapiens) (UniProt Q96BR1); settings: Compound concentration 1000.0 nM
[22] = molecular target: Ephrin type-A receptor 6 (Homo sapiens) (UniProt Q9UF33); settings: Compound concentration 1000.0 nM
[23] = molecular target: Interferon-induced, double-stranded RNA-activated protein kinase (Homo sapiens) (UniProt P19525); settings: Compound concentration 1000.0 nM
[24] = molecular target: NUAK family SNF1-like kinase 2 (Homo sapiens) (UniProt Q9H093); settings: Compound concentration 1000.0 nM
[25] = molecular target: Sigma non-opioid intracellular receptor 1 (Homo sapiens) (UniProt Q99720); assay: sigma (non-selective) (h) CEREP ligand profiling; settings: filed as agonist, Compound concentration 10.0 uM
Chain of Sigma non-opioid intracellular receptor 1 (Homo sapiens) (Q99720 whole entry): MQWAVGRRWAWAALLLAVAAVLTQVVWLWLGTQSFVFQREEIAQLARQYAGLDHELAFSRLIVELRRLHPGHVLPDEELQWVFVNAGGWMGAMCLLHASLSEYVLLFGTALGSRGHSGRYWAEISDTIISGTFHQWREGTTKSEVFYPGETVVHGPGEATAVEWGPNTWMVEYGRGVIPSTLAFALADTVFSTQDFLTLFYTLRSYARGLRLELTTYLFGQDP

[26] = molecular target: Epidermal growth factor receptor (Homo sapiens) (UniProt P00533); settings: Compound concentration 1000.0 nM
[27] = molecular target: Serine/threonine-protein kinase RIO2 (Homo sapiens) (UniProt Q9BVS4); settings: Compound concentration 1000.0 nM
[28] = molecular target: Mitogen-activated protein kinase kinase kinase kinase 4 (Homo sapiens) (UniProt O95819); settings: Compound concentration 1000.0 nM
[29] = system: Receptor-type tyrosine-protein kinase FLT3 (Homo sapiens), P36888 [N841I]; settings: Compound concentration 1000.0 nM
[30] = system: Epidermal growth factor receptor (Homo sapiens), P00533 [L858R,T790M]; settings: Compound concentration 1000.0 nM
[31] = molecular target: Citron Rho-interacting kinase (Homo sapiens) (UniProt O14578); settings: Compound concentration 1000.0 nM
[32] = molecular target: Serine/threonine-protein kinase Chk1 (Homo sapiens) (UniProt O14757); settings: Compound concentration 1000.0 nM
Chain of Serine/threonine-protein kinase Chk1 (Homo sapiens) (O14757 whole entry): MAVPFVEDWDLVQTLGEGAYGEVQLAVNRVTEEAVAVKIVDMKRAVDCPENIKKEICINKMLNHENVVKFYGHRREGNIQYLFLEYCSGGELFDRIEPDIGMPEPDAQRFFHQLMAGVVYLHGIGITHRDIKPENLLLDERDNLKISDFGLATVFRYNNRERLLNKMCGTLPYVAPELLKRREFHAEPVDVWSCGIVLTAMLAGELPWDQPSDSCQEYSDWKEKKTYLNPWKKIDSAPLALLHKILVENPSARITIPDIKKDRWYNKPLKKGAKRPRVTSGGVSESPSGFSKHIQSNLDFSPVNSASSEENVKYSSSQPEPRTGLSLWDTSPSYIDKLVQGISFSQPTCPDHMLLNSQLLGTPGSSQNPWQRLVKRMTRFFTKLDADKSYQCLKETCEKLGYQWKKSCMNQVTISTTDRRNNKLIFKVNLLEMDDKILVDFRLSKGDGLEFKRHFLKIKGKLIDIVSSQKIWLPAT

[33] = molecular target: Cyclin-dependent kinase 13 (Homo sapiens) (UniProt Q14004); settings: Compound concentration 1000.0 nM
[34] = molecular target: BMP-2-inducible protein kinase (Homo sapiens) (UniProt Q9NSY1); settings: Compound concentration 1000.0 nM
[35] = molecular target: Bone morphogenetic protein receptor type-2 (Homo sapiens) (UniProt Q13873); settings: Compound concentration 1000.0 nM
[36] = molecular target: Non-receptor tyrosine-protein kinase TYK2 (Homo sapiens) (UniProt P29597); settings: Compound concentration 1000.0 nM
[37] = molecular target: Dual specificity tyrosine-phosphorylation-regulated kinase 1B (Homo sapiens) (UniProt Q9Y463); settings: Compound concentration 1000.0 nM

CNC(=O)Nc1ccc2c(c1)CC[C@@]21OC(=O)N(CC(=O)N(Cc2ccc(F)cc2)[C@@H](C)C(F)(F)F)C1=O [A-485]
inactive: residual activity [1] 86% | residual activity [2] 90% | residual activity [3] 70% | residual activity [4] 90% | residual activity [5] 92% | residual activity [6] 76% | residual activity [7] 100% | residual activity [8] 97% | residual activity [9] 94% | inhibition [10] 12% | residual activity [11] 72% | residual activity [12] 88% | residual activity [13] 100% | inhibition [14] 99% | residual activity [15] 67% | inhibition [16] 19.7% | residual activity [17] 91% | residual activity [18] 100% | inhibition [19] -4% | residual activity [20] 100% | residual activity [21] 68% | residual activity [22] 79% | residual activity [23] 92% | residual activity [24] 74% | inhibition [25] -3% | residual activity [26] 100% | residual activity [27] 67% | residual activity [28] 87% | residual activity [29] 100% | residual activity [30] 91% | residual activity [31] 92% | residual activity [32] 98% | residual activity [33] 96% | residual activity [34] 98% | residual activity [35] 100% | residual activity [36] 91% | residual activity [37] 81%

CNC(=O)Nc1ccc2c(c1)[C@@]1(CC2)OC(=O)N(CC(=O)N(Cc2ccc(F)cc2)[C@@H](C)C(F)(F)F)C1=O [A-486]
inactive: residual activity [1] 99% | residual activity [2] 83% | residual activity [3] 64% | residual activity [4] 87% | residual activity [5] 100% | residual activity [6] 75% | residual activity [7] 84% | residual activity [8] 100% | residual activity [9] 100% | inhibition [10] 7% | residual activity [11] 81% | residual activity [12] 87% | residual activity [13] 100% | inhibition [14] 40% | residual activity [15] 70% | inhibition [16] 15.6% | residual activity [17] 100% | residual activity [18] 99% | inhibition [19] 4% | residual activity [20] 100% | residual activity [21] 72% | residual activity [22] 91% | residual activity [23] 100% | residual activity [24] 77% | inhibition [25] 7% | residual activity [26] 100% | residual activity [27] 83% | residual activity [28] 100% | residual activity [29] 100% | residual activity [30] 83% | residual activity [31] 100% | residual activity [32] 100% | residual activity [33] 92% | residual activity [34] 100% | residual activity [35] 100% | residual activity [36] 92% | residual activity [37] 100%
